Reference: BindingDB's records for doi:10.7270/Q2TX3CSC (Vanderbilt Screening Center for GPCRs, Ion Channels and …, 2009)

target: T1, Solute carrier family 12 member 5 (Homo sapiens, UniProt Q9H2X9); test: concentration-response of KCC2 transport modulators – cell-based, HEK293 KCC2, FluoZin-2 fluorescence, dose response (AID 1736); conditions: not given
T1 sequence (Q9H2X9 whole entry): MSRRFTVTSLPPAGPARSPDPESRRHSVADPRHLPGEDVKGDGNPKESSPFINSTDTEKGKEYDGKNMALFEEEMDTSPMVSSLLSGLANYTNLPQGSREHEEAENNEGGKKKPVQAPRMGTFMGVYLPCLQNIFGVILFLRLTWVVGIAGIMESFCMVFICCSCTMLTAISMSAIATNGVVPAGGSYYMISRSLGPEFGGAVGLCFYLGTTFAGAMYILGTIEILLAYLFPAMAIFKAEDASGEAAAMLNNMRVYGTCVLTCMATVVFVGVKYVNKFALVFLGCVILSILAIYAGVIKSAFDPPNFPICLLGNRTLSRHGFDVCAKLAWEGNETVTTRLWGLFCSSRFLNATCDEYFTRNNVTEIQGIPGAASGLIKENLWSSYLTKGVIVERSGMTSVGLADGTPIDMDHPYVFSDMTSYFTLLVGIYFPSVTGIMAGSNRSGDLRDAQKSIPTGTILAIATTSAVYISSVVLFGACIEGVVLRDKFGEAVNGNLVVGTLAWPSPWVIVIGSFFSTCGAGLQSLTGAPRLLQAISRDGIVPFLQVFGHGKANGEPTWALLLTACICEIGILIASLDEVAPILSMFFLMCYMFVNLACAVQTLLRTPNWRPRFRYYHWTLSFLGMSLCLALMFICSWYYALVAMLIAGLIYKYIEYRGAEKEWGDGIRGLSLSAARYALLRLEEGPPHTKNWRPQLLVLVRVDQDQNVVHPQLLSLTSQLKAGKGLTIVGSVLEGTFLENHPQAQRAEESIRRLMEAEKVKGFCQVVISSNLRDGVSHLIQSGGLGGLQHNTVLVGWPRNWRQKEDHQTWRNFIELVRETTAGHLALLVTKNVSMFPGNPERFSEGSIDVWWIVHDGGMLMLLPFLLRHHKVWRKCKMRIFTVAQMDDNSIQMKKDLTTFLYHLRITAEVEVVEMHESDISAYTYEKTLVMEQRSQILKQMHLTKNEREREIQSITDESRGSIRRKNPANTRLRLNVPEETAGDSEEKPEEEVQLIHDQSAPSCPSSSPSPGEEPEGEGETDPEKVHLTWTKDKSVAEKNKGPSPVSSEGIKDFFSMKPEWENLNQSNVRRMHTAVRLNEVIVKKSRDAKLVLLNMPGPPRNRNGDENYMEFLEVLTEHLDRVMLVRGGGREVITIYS

First: Cc1oc(-c2ccccc2)nc1C[S+]([O-])CC(=O)N1CCc2ccccc2C1 (stereo unspecified) [1-(3,4-dihydro-1H-isoquinolin-2-yl)-2-[(5-methyl-2-phenyl-1,3-oxazol-4-yl)methylsulfinyl]ethanone]
Second: O=C(CC(C(=O)N1CCc2ccccc21)n1ccnc1)N1CCc2ccccc2C1 (stereo unspecified) [1-(2,3-dihydroindol-1-yl)-4-(3,4-dihydro-1H-isoquinolin-2-yl)-2-(1-imidazolyl)butane-1,4-dione]
The EC50 of the first is 230-fold lower: 7.74 µM for the first, 1770 µM for the second. The first is the more potent here.

Going from `c1ccc(-n2cnc3cc(NCc4ccncc4)ccc32)cc1` [(1-phenylbenzimidazol-5-yl)-(4-pyridylmethyl)amine] to `O=C(Nc1ccc(Cc2ccncc2)cc1)c1cccc([N+](=O)[O-])c1` [3-Nitro-N-(4-pyridin-4-ylmethyl-phenyl)-benzamide], the EC50 rises from 1.92 µM to 15.3 µM (8-fold). The first is the more potent here.

Compared with `CCN(CC)S(=O)(=O)c1ccc(NC(=O)CSc2ncnc3ccccc23)cc1` [MLS000393282], `Cc1ccc(NC(=O)CSc2ccc(-c3ccco3)nn2)cc1` [2-[6-(furan-2-yl)pyridazin-3-yl]sulfanyl-N-(4-methylphenyl)acetamide] is 3.2-fold higher in EC50: 1.1 µM for the first, 3.48 µM for the second. The first is the more potent here.

First: O=C(Cn1cnc2c(nnn2Cc2ccc(F)cc2)c1=O)N1CCN(c2ccccc2)CC1 [3-(4-fluorobenzyl)-6-[2-keto-2-(4-phenylpiperazino)ethyl]triazolo[4,5-d]pyrimidin-7-one]
Second: O=C(Cn1cnc2c(nnn2Cc2ccc(F)cc2)c1=O)NCc1ccc2c(c1)OCO2 [2-[3-(4-fluorobenzyl)-7-keto-triazolo[4,5-d]pyrimidin-6-yl]-N-piperonyl-acetamide]
The EC50 of the first is 12-fold higher: 20 µM for the first, 1.69 µM for the second.

Going from `O=C(Cn1c(-c2ccc(Cl)cc2)noc1=O)N1CCN(c2ccccc2F)CC1` [3-(4-Chloro-phenyl)-4-{2-[4-(2-fluoro-phenyl)-piperazin-1-yl]-2-oxo-ethyl}-4H-[1,2,4]oxadiazol-5-one] to `Cn1c(C(=O)NCCCN2CCN(c3ccccc3F)CC2)cc2c(=O)n(C)c3ccccc3c21` [MLS000118127], the EC50 falls from 228 µM to 10.3 µM (22-fold). The second is the more potent here.

Compared with `O=C(CSc1ccc(-c2ccccc2)nn1)Nc1ccc2c(c1)OCCO2` [MLS000724887], `Cc1csc(NC(=O)CSc2ccc(-c3ccccc3)nn2)n1` [N-(4-methyl-1,3-thiazol-2-yl)-2-(6-phenylpyridazin-3-yl)sulfanyl-ethanamide] is 14-fold lower in EC50: 3.48 µM for the first, 0.249 µM for the second.

Compared with `Cc1ccc(/C=C2\SC(=S)N(c3c(C)n(C)n(-c4ccccc4)c3=O)C2=O)cc1` [3-(1,5-dimethyl-3-oxo-2-phenyl-2,3-dihydro-1H-pyrazol-4-yl)-5-(4-methylbenzylidene)-2-thioxo-1,3-thiazolidin-4-one], `CC(C)N1C(=O)S/C(=C/c2ccccc2OCc2ccc(C(=O)O)cc2)C1=O` is 11-fold higher in EC50: 0.13 µM for the first, 1.48 µM for the second.

`CCC(Cc1ccccc1)NC(=O)CN(C)S(=O)(=O)c1ccc2c(c1)c(=O)n(C)c(=O)n2C` (stereo unspecified) [2-[(1,3-dimethyl-2,4-dioxo-6-quinazolinyl)sulfonyl-methylamino]-N-(1-phenylbutan-2-yl)acetamide] and `CCOc1cc(S(=O)(=O)NCc2ccccc2)ccc1F` [3-ethoxy-4-fluoranyl-N-(phenylmethyl)benzenesulfonamide] are within 1.5-fold of each other in EC50: 7.26 µM for the first, 5.92 µM for the second.

Compared with `Cc1ccc(C(=O)CC=Nc2ccccc2C(N)=O)cc1` [2-[[(E)-3-(4-methylphenyl)-3-oxidanylidene-prop-1-enyl]amino]benzamide], `Cc1ccc(CSCCNC(=O)c2ccc(C)cc2)cc1` [4-methyl-N-[2-[(4-methylbenzyl)thio]ethyl]benzamide] is 800-fold higher in EC50: 3.36 µM for the first, 2690 µM for the second. The first is the more potent here.

Going from `O=C(C1CCN(S(=O)(=O)c2cccc3nsnc23)CC1)N1CCc2ccccc2C1` [2-{[1-(2,1,3-benzothiadiazol-4-ylsulfonyl)piperidin-4-yl]carbonyl}-1,2,3,4-tetrahydroisoquinoline] to `CCn1c(=O)n(CC)c2cc(S(=O)(=O)N3CCC(c4ccccc4)CC3)ccc21` [1,3-diethyl-5-(4-phenylpiperidin-1-yl)sulfonyl-benzimidazol-2-one], the EC50 falls from 69.7 µM to 10.8 µM (6.5-fold). The second is the more potent here.

Compared with `Fc1cccc(F)c1C=NNC(=S)Nc1cccnc1` [1-[(2,6-difluorobenzylidene)amino]-3-(3-pyridyl)thiourea], `O=C(NN=Cc1ccccn1)c1ccccc1O` [2-oxidanyl-N-(pyridin-2-ylmethylideneamino)benzamide] is 4.2-fold higher in EC50: 6.93 µM for the first, 29.2 µM for the second.

Going from `Sc1nnc(COc2ccc(Cl)cc2)o1` [5-(4-Chloro-phenoxymethyl)-3H-[1,3,4]oxadiazole-2-thione] to `Cc1c(C(=O)NCCSCc2ccc(F)cc2)cnn1-c1ccc(Cl)cc1` [1-(4-chlorophenyl)-N-[2-[(4-fluorobenzyl)thio]ethyl]-5-methyl-pyrazole-4-carboxamide], the EC50 falls from 9.34 µM to 6.18 µM (1.5-fold). The second is the more potent here.

Compared with `O=C(O)CC/C(=C\c1ccc(N2CCOCC2)c([N+](=O)[O-])c1)c1nc2ccccc2s1` [(E)-4-(1,3-benzothiazol-2-yl)-5-(4-morpholin-4-yl-3-nitro-phenyl)pent-4-enoic acid], `O=C(O)c1cc([N+](=O)[O-])ccc1NCc1ccccc1` [2-(benzylamino)-5-nitro-benzoic acid] is 1.6-fold higher in EC50: 2.66 µM for the first, 4.19 µM for the second. The first is the more potent here.

Compared with `Cc1ccc2[nH]c3c(N4CCN(Cc5ccccc5)CC4)ncnc3c2c1` [8-methyl-4-[4-(phenylmethyl)-1-piperazinyl]-5H-pyrimido[5,4-b]indole], `CC1Cc2ccccc2N1C(=O)CSc1nnnn1Cc1ccccc1` (stereo unspecified) [1-(2-methyl-2,3-dihydroindol-1-yl)-2-[[1-(phenylmethyl)-1,2,3,4-tetrazol-5-yl]sulfanyl]ethanone] is 4.6-fold higher in EC50: 2.94 µM for the first, 13.6 µM for the second. The first is the more potent here.

First: COC(=O)[C@@H](NC(=O)O[C@@H]1C(=O)c2ccc(OC)cc2O[C@H]1c1cccc(C(F)(F)F)c1)C(C)C [(2S)-2-[[(2S,3S)-4-keto-7-methoxy-2-[3-(trifluoromethyl)phenyl]chroman-3-yl]oxycarbonylamino]-3-methyl-butyric acid methyl ester]
Second: COc1cccc(CNC(=O)CSc2ccc(-c3cccs3)nn2)c1 [MLS000621194]
The EC50 of the first is 16-fold lower: 1.24 µM for the first, 19.5 µM for the second.

First: O=C(COC(=O)c1cc([N+](=O)[O-])ccc1NCCO)c1ccccc1 [2-(2-hydroxyethylamino)-5-nitro-benzoic acid phenacyl ester]
Second: O=C(O)CCN(Cc1ccccc1)S(=O)(=O)c1c(Cl)cccc1Cl [3-[(2,6-dichlorophenyl)sulfonyl-(phenylmethyl)amino]propanoic acid]
The EC50 of the first is 6.5-fold lower: 9.16 µM for the first, 59.2 µM for the second. The first is the more potent here.

Compared with `O=C(NNc1nc(-c2ccccc2)cs1)c1ccccc1` [MLS000547345], `O=C(O)/C=C/c1cn(Cc2ccccc2)nc1-c1ccccc1` [MLS000567315] is 160-fold higher in EC50: 0.024 µM for the first, 3.77 µM for the second.

`O=C(O)c1cc(-c2ccc(F)cc2F)ccc1O` and `CCn1c(SCC(=O)Nc2ccc(Cl)cc2)nc2nc3c(cc2c1=O)CCCC3` [MLS000589154] are within 1.5-fold of each other in EC50: 25.7 µM for the first, 28.2 µM for the second.

Compared with `O=S(=O)(NCc1ccccc1)c1ccc(Cl)c(S(=O)(=O)NCc2ccccc2)c1` [1-N,3-N-dibenzyl-4-chlorobenzene-1,3-disulfonamide], `O=C(CC(Cc1ccccc1)c1ccco1)NC1CCCCC1` (stereo unspecified) [MLS000556612] is 91-fold higher in EC50: 2.34 µM for the first, 212 µM for the second.

`Cn1c(CSc2nc3ccccc3s2)nc2ccccc21` [2-(1-Methyl-1H-benzoimidazol-2-ylmethylsulfanyl)-benzothiazole] showed an EC50 of 14.8 µM.

same assay, conditions: inactive by the depositor's call

Going from `O=C(CSc1nnnn1-c1ccccc1)Nc1nsc(-c2ccccc2)n1` [2-(1-phenyltetrazol-5-yl)sulfanyl-N-(5-phenyl-1,2,4-thiadiazol-3-yl)acetamide] to `Cn1cc(SCC(=O)N2CCN(c3ccccc3)CC2)c2ccccc21` [2-(1-methylindol-3-yl)sulfanyl-1-(4-phenylpiperazin-1-yl)ethanone], the EC50 rises from 1.4 µM to 78.4 µM (56-fold).

First: O=C(NC(=S)Nc1ccc(-c2nc3ncccc3o2)cc1)c1ccccc1F [2-fluoranyl-N-[[4-([1,3]oxazolo[4,5-b]pyridin-2-yl)phenyl]carbamothioyl]benzamide]
Second: O=C(O)/C=C/c1cn(Cc2ccccc2)nc1-c1ccc(Cl)cc1 [(E)-3-[1-benzyl-3-(4-chlorophenyl)pyrazol-4-yl]acrylic acid]
The EC50 of the first is 15-fold lower: 1.8 µM for the first, 26.3 µM for the second. The first is the more potent here.

Compared with `Cc1cccc(N2CCN(C(=O)CCCn3c(=S)[nH]c4cc5c(cc4c3=O)OCO5)CC2)c1C` [MLS000095366], `COc1ccc(C(=O)NC(=S)N2CCN(c3ccc([N+](=O)[O-])cc3)CC2)cc1` [4-methoxy-N-[4-(4-nitrophenyl)piperazin-1-yl]carbothioyl-benzamide] is 130-fold lower in EC50: 22.6 µM for the first, 0.178 µM for the second.

With `Cc1ccc(-c2nn(Cc3ccccc3)cc2/C=C/C(=O)O)cc1` [(E)-3-[1-benzyl-3-(4-methylphenyl)pyrazol-4-yl]prop-2-enoic acid] the EC50 was 12.1 µM.
